Key:
Format in all cases: in vivo
Conditions in all cases: treatment dosage 320 g/ha
barnyard grass [1] = experiment: Test Example 1: weedkilling efficacy, preemergent weed treatment in the submerged state; A: barnyard grass
In short: (§1)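 Pre-emergence application onto floodwater (4 cm, alluvial soil) on the day of sowing, dose expressed as g/ha from diluted emulsion formulation. Weeds sown with 2.5-leaf transplanted rice as crop; plants held at 25–30 °C in greenhouse and scored against assessment criteria after 3 weeks.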

bulrush [2] = experiment: Test Example 1: weedkilling efficacy, preemergent weed treatment in the submerged state; B: bulrush
In short: as §1

oval-leafed pondweed [3] = experiment: Test Example 1: weedkilling efficacy, preemergent weed treatment in the submerged state; C: oval-leafed pondweed
In short: as §1

transplanted rice = experiment: Test Example 1: preemergent weed treatment in the submerged state, effect on crop; a: transplanted rice
In short: as §1

barnyard grass [4] = experiment: Test Example 2: weedkilling efficacy, growth period weed treatment in the submerged state; A: barnyard grass
In short: (§2)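 Weeds treated at the 1-2 leaf stage by application of diluted emulsion onto floodwater (4 cm depth, alluvial soil) at specified g/ha. Grown in greenhouse at 25 to 30° C; herbicidal effect rated three weeks after treatment.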

bulrush [5] = experiment: Test Example 2: weedkilling efficacy, growth period weed treatment in the submerged state; B: bulrush
In short: as §2

oval-leafed pondweed [6] = experiment: Test Example 2: weedkilling efficacy, growth period weed treatment in the submerged state; C: oval-leafed pondweed
In short: as §2

crabgrass [7] = experiment: Test Example 3: weedkilling efficacy through soil treatment; D: crabgrass
In short: (§3)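 Crop and weed responses were judged three weeks after a uniform surface spray of the water-diluted emulsion at the given g/ha rate. Seeds sat beneath about 1.5 cm of sterilized diluvial soil, and boxes stood in a greenhouse at 25 to 30° C.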

green foxtail [8] = experiment: Test Example 3: weedkilling efficacy through soil treatment; E: green foxtail
In short: as §3

barnyard grass [9] = experiment: Test Example 3: weedkilling efficacy through soil treatment; F: barnyard grass
In short: as §3

wild oat [10] = experiment: Test Example 3: weedkilling efficacy through soil treatment; G: wild oat
In short: as §3

black-grass [11] = experiment: Test Example 3: weedkilling efficacy through soil treatment; H: black-grass
In short: as §3

Italian ryegrass [12] = experiment: Test Example 3: weedkilling efficacy through soil treatment; I: Italian ryegrass
In short: as §3

common wind-grass [13] = experiment: Test Example 3: weedkilling efficacy through soil treatment; J: common wind-grass
In short: as §3

Indian mallow [14] = experiment: Test Example 3: weedkilling efficacy through soil treatment; K: Indian mallow
In short: as §3

redroot pigweed [15] = experiment: Test Example 3: weedkilling efficacy through soil treatment; L: redroot pigweed
In short: as §3

fig-leafed goosefoot [16] = experiment: Test Example 3: weedkilling efficacy through soil treatment; M: fig-leafed goosefoot
In short: as §3

chickweed [17] = experiment: Test Example 3: weedkilling efficacy through soil treatment; N: chickweed
In short: as §3

birds-eye speedwell [18] = experiment: Test Example 3: weedkilling efficacy through soil treatment; p: birds-eye speedwell
In short: as §3

directly sown rice [19] = experiment: Test Example 3: soil treatment, effect on crop; b: directly sown rice
In short: as §3

corn [20] = experiment: Test Example 3: soil treatment, effect on crop; c: corn
In short: as §3

soybean [21] = experiment: Test Example 3: soil treatment, effect on crop; d: soybean
In short: as §3

wheat [22] = experiment: Test Example 3: soil treatment, effect on crop; e: wheat
In short: as §3

beet [23] = experiment: Test Example 3: soil treatment, effect on crop; f: beet
In short: as §3

rapeseed [24] = experiment: Test Example 3: soil treatment, effect on crop; g: rapeseed
In short: as §3

crabgrass [25] = experiment: Test Example 4: weedkilling efficacy by foliar treatment; D: crabgrass
In short: (§4)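 Seeds are spot-sown into sterilized diluvial soil and covered with about 1.5 cm of soil. After 14 days' greenhouse growth at 25 to 30° C, plants are sprayed on stems and leaves with diluted emulsion at the stated g/ha rate, then scored at 3 weeks.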

green foxtail [26] = experiment: Test Example 4: weedkilling efficacy by foliar treatment; E: green foxtail
In short: as §4

barnyard grass [27] = experiment: Test Example 4: weedkilling efficacy by foliar treatment; F: barnyard grass
In short: as §4

wild oat [28] = experiment: Test Example 4: weedkilling efficacy by foliar treatment; G: wild oat
In short: as §4

black-grass [29] = experiment: Test Example 4: weedkilling efficacy by foliar treatment; H: black-grass
In short: as §4

Italian ryegrass [30] = experiment: Test Example 4: weedkilling efficacy by foliar treatment; I: Italian ryegrass
In short: as §4

common wind-grass [31] = experiment: Test Example 4: weedkilling efficacy by foliar treatment; J: common wind-grass
In short: as §4

Indian mallow [32] = experiment: Test Example 4: weedkilling efficacy by foliar treatment; K: Indian mallow
In short: as §4

redroot pigweed [33] = experiment: Test Example 4: weedkilling efficacy by foliar treatment; L: redroot pigweed
In short: as §4

fig-leafed goosefoot [34] = experiment: Test Example 4: weedkilling efficacy by foliar treatment; M: fig-leafed goosefoot
In short: as §4

chickweed [35] = experiment: Test Example 4: weedkilling efficacy by foliar treatment; N: chickweed
In short: as §4

catchweed = experiment: Test Example 4: weedkilling efficacy by foliar treatment; O: catchweed
In short: as §4

birds-eye speedwell [36] = experiment: Test Example 4: weedkilling efficacy by foliar treatment; p: birds-eye speedwell
In short: as §4

directly sown rice [37] = experiment: Test Example 4: foliar treatment, effect on crop; b: directly sown rice
In short: as §4

corn [38] = experiment: Test Example 4: foliar treatment, effect on crop; c: corn
In short: as §4

soybean [39] = experiment: Test Example 4: foliar treatment, effect on crop; d: soybean
In short: as §4

wheat [40] = experiment: Test Example 4: foliar treatment, effect on crop; e: wheat
In short: as §4

beet [41] = experiment: Test Example 4: foliar treatment, effect on crop; f: beet
In short: as §4

rapeseed [42] = experiment: Test Example 4: foliar treatment, effect on crop; g: rapeseed
In short: as §4

## COc1cc(C(F)(F)F)cc(NC(=O)C(C)(C)N2COC(C)=C(c3ccccc3)C2=O)n1 [B-2-49]
Barnyard grass [1]
  A (barnyard grass) weedkilling efficacy grade: 5 (weed kill ratio 90% or more, (practically complete withering))
Bulrush [2]
  B (bulrush) weedkilling efficacy grade: 5 (weed kill ratio 90% or more, (practically complete withering))
oval-leafed pondweed [3]
  C (oval-leafed pondweed) weedkilling efficacy grade: 5 (weed kill ratio 90% or more, (practically complete withering))
Transplanted rice
  a (transplanted rice) effect on crop grade: 3 (weed kill ratio 40% or more, less than 70%)
Barnyard grass [4]
  A (barnyard grass) weedkilling efficacy grade: 5 (weed kill ratio 90% or more, (practically complete withering))
Bulrush [5]
  B (bulrush) weedkilling efficacy grade: 5 (weed kill ratio 90% or more, (practically complete withering))
oval-leafed pondweed [6]
  C (oval-leafed pondweed) weedkilling efficacy grade: 5 (weed kill ratio 90% or more, (practically complete withering))
Crabgrass [7]
  D (crabgrass) weedkilling efficacy grade: 5 (weed kill ratio 90% or more, (practically complete withering))
Green foxtail [8]
  E (green foxtail) weedkilling efficacy grade: 5 (weed kill ratio 90% or more, (practically complete withering))
Barnyard grass [9]
  F (barnyard grass) weedkilling efficacy grade: 5 (weed kill ratio 90% or more, (practically complete withering))
Wild oat [10]
  G (wild oat) weedkilling efficacy grade: 3 (weed kill ratio 40% or more, less than 70%)
black-grass [11]
  H (black-grass) weedkilling efficacy grade: 5 (weed kill ratio 90% or more, (practically complete withering))
Italian ryegrass [12]
  I (Italian ryegrass) weedkilling efficacy grade: 5 (weed kill ratio 90% or more, (practically complete withering))
Common wind-grass [13]
  J (common wind-grass) weedkilling efficacy grade: 5 (weed kill ratio 90% or more, (practically complete withering))
Indian mallow [14]
  K (Indian mallow) weedkilling efficacy grade: 1 (weed kill ratio 5% or more, less than 20%)
Redroot pigweed [15]
  L (redroot pigweed) weedkilling efficacy grade: 4 (weed kill ratio 70% or more, less than 90%)
fig-leafed goosefoot [16]
  M (fig-leafed goosefoot) weedkilling efficacy grade: 3 (weed kill ratio 40% or more, less than 70%)
Chickweed [17]
  N (chickweed) weedkilling efficacy grade: 4 (weed kill ratio 70% or more, less than 90%)
birds-eye speedwell [18]
  P (birds-eye speedwell) weedkilling efficacy grade: 5 (weed kill ratio 90% or more, (practically complete withering))
Directly sown rice [19]
  b (directly sown rice) effect on crop grade: 3 (weed kill ratio 40% or more, less than 70%)
Corn [20]
  c (corn) effect on crop grade: 0 (weed kill ratio 5% or less (practically no effect))
Soybean [21]
  d (soybean) effect on crop grade: 0 (weed kill ratio 5% or less (practically no effect))
Wheat [22]
  e (wheat) effect on crop grade: 0 (weed kill ratio 5% or less (practically no effect))
Beet [23]
  f (beet) effect on crop grade: 3 (weed kill ratio 40% or more, less than 70%)
Rapeseed [24]
  g (rapeseed) effect on crop grade: 3 (weed kill ratio 40% or more, less than 70%)
Crabgrass [25]
  D (crabgrass) weedkilling efficacy grade: 5 (weed kill ratio 90% or more, (practically complete withering))
Green foxtail [26]
  E (green foxtail) weedkilling efficacy grade: 5 (weed kill ratio 90% or more, (practically complete withering))
Barnyard grass [27]
  F (barnyard grass) weedkilling efficacy grade: 4 (weed kill ratio 70% or more, less than 90%)
Wild oat [28]
  G (wild oat) weedkilling efficacy grade: 3 (weed kill ratio 40% or more, less than 70%)
black-grass [29]
  H (black-grass) weedkilling efficacy grade: 3 (weed kill ratio 40% or more, less than 70%)
Italian ryegrass [30]
  I (Italian ryegrass) weedkilling efficacy grade: 1 (weed kill ratio 5% or more, less than 20%)
Common wind-grass [31]
  J (common wind-grass) weedkilling efficacy grade: 4 (weed kill ratio 70% or more, less than 90%)
Indian mallow [32]
  K (Indian mallow) weedkilling efficacy grade: 4 (weed kill ratio 70% or more, less than 90%)
Redroot pigweed [33]
  L (redroot pigweed) weedkilling efficacy grade: 3 (weed kill ratio 40% or more, less than 70%)
fig-leafed goosefoot [34]
  M (fig-leafed goosefoot) weedkilling efficacy grade: 3 (weed kill ratio 40% or more, less than 70%)
Chickweed [35]
  N (chickweed) weedkilling efficacy grade: 3 (weed kill ratio 40% or more, less than 70%)
catchweed
  O (catchweed) weedkilling efficacy grade: 3 (weed kill ratio 40% or more, less than 70%)
birds-eye speedwell [36]
  P (birds-eye speedwell) weedkilling efficacy grade: 4 (weed kill ratio 70% or more, less than 90%)
Directly sown rice [37]
  b (directly sown rice) effect on crop grade: 0 (weed kill ratio 5% or less (practically no effect))
Corn [38]
  c (corn) effect on crop grade: 3 (weed kill ratio 40% or more, less than 70%)
Soybean [39]
  d (soybean) effect on crop grade: 3 (weed kill ratio 40% or more, less than 70%)
Wheat [40]
  e (wheat) effect on crop grade: 0 (weed kill ratio 5% or less (practically no effect))
Beet [41]
  f (beet) effect on crop grade: 3 (weed kill ratio 40% or more, less than 70%)
Rapeseed [42]
  g (rapeseed) effect on crop grade: 3 (weed kill ratio 40% or more, less than 70%)

Source: US9738634B2, “Heterocyclic amide compound and herbicide” (SYNGENTA PARTICIPATIONS AG, priority 2013, dated 2017)
